In brackets after ≈: the same amount, converted by molar mass.
Assays:
[1] = Inhibitor characteristics: solubility; assay type: physicochemical
Excerpt: • 1.) Solid yellow in colour. • 2.) Solubility. The inhibitor is soluble in PBS pH 7.2-8.0; soluble in an aqueous environment with low levels of K^+, Na^+. It also dissolves in methanol, DMSO, but degrades in these solvents.

[2] = biological target: T1, DD-peptidase R61 (Streptomyces sp., UniProt P15555); assay: DD-peptidase R61 activity inhibition (ID50); assay type: biochemical; settings: DD-peptidase R61, purified inhibitor; read-out: ID50 (M), molar concentration of inhibitor which inhibits 50% of enzyme activity
T1 construct: DD-peptidase R61 produced by Streptomyces sp; R61; gift: Prof; Jean-Maria Ghuysen; host or cells: Streptomyces sp; R61 (natural producer)
T1 sequence (P15555 32-380): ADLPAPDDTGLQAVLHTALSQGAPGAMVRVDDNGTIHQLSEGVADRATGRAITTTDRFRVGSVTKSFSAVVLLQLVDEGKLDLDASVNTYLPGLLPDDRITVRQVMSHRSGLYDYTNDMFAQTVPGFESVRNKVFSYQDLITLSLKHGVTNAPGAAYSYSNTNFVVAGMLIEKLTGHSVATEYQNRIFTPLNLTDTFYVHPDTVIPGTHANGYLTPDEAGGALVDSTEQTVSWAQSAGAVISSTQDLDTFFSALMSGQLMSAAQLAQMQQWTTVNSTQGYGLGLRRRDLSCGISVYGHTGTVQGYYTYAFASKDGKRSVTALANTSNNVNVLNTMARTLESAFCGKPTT

[3] = tested on: Stenotrophomonas maltophilia ATCC 13637; assay: Spot-diffusion method, growth inhibition zones; assay type: cell-based; settings: ATCC13637, 0.4 mg inhibitor per disc
Protocol: (§1) Inhibitor activity was also determined using the spot-diffusion method.
(§2) The analysis was performed using: Proteus vulgaris NCTC 4635, Bordetella bronchiseptica ATCC 4617, Stenotrophomonas maltophilia ATCC 13637. 24 bacterial cultures were used to make suspensions containing 0.2 McF, which was then diluted 100-fold. 0.1 ml of such a mixture was then placed on a dish with Muller-Hinton medium. Discs containing the examined inhibitor fractions were placed and incubated at 35° C. The determinations were carried out at 15 and 18 hours.
(§3) The following growth inhibition zones were obtained using 0.4 mg inhibitor per disc: […]

[4] = tested on: Bordetella bronchiseptica ATCC 4617; assay: Spot-diffusion method, growth inhibition zones; assay type: cell-based; settings: ATCC4617, 0.4 mg inhibitor per disc
Protocol: as §1, §2, §3

[5] = tested on: Proteus vulgaris NCTC 4635; assay: Spot-diffusion method, growth inhibition zones; assay type: cell-based; settings: NCTC4635, 0.4 mg inhibitor per disc
Protocol: as §1, §2, §3

[6] = tested on: class A β-lactamase (penicillinase, Penase); assay: β-lactamase inhibitor activity, nitrocefin method; assay type: biochemical; settings: 482 nm, 30 min preincubation at 37° C.
Protocol: Determination of β-Lactamase Inhibitor Activity Using the Nitrocefin Method (O'Callaghan et al. 1972)^2.
reagents used in the assay: 0.1 mM nitrocefin solution containing 0.5 mg nitrocefin (Glaxo), 0.5 cm^3 DMSO (Fluka), 9.5 cm^3 0.1 M PBS pH 7.0; class A β-lactamase (penicillinase, Penase, 5×10^6 IU/ml, Bacto).
20 mm^3 of the examined inhibitor in 0.1 M PBS pH 7.0 were supplemented with 10 mm^3 β-lactamase, incubated for 30 min. at 37° C. Next, 30 mm^3 of 0.1 mM nitrocefin solution were added, and 430 mm^3 of 0.1M PBS pH 7.0. The samples were incubated for 10 min. at 37° C. and evaluated spectrophotometrically at 482 nm. The molar extinction coefficient was 15000 M^−1·cm^−1.

[7] = tested on: β-lactamase; assay: Inhibitor stability in a β-lactamase environment; assay type: biochemical
Protocol: Determination of Inhibitor Stability in a β-Lactamase Environment.
A method of evaluation inhibitor stability was designed using a combination of the above two methods. An initial incubation of the inhibitor with β-lactamase was performed, and then the reagents for determining DD-peptidase activity inhibition were added. The absorbance of the experimental sample was 0.05, whereas for the control sample (DD-peptidase) it was 0.35. […] It is not hydrolysed by β-lactamase.

[8] = biological target: T1, DD-peptidase R61; assay: Life of the inhibitor-enzyme complex, R61; assay type: biochemical, Streptomyces sp. R61
Protocol: (§4) The Life of the Inhibitor-Enzyme Complex was Also Determined.
(§5) The incubation was performed from several to several dozen hours of each enzyme and inhibitor (as described above). Next, the reaction mixture was added, and determinations were performed.

[9] = tested on: Candida albicans ATCC 10231; assay: Antifungal activity analysis, disc on Sabourand medium; assay type: cell-based; settings: discs with 1 mg, 35° C. for 24 h; inhibitor fractions following stage 2 of purification
Protocol: A Petri dish with solid Sabourand medium with 4% glucose was inoculated with a Candida albicans ATCC 10231 suspension, at 0.02 McF density. Tissue discs soaked in the inhibitor solution were then placed on the medium (1 mg). The incubation was performed at 35° C. for 24 h.

[10] = biological target: T2, DD-peptidase R39 (Actinomadura sp., UniProt P39045); assay: DD-peptidase R39 activity inhibition (ID50); assay type: biochemical; settings: DD-peptidase R39, purified inhibitor; read-out: ID50 (M), molar concentration of inhibitor which inhibits 50% of enzyme activity
T2 construct: extracellular DD-peptidase R39 produced by Actinomadura sp; R39; gift: Prof; Jean-Maria Ghuysen; host or cells: Actinomadura sp; R39 (natural producer, secreted)
T2 sequence (P39045 50-538): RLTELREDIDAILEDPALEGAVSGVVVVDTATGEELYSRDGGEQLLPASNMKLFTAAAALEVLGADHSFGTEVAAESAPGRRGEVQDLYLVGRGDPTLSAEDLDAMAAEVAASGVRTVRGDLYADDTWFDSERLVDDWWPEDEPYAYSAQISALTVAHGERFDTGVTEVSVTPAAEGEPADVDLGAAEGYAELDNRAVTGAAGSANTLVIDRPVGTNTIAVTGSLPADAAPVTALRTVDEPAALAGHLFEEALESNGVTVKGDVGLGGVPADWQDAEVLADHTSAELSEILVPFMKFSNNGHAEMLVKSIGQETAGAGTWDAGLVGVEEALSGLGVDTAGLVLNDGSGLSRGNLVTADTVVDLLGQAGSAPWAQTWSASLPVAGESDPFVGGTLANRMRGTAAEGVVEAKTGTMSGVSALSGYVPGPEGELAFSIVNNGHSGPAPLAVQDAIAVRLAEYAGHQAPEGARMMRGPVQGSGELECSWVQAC

[11] = tested on: Escherichia coli ATCC 25922; assay: MIC, serial dilutions on solid media; assay type: cell-based; settings: ATCC25922, MH II agar, 16 hours at 35° C., inhibitor fractions purified on ion-exchange column
Protocol: (§6) The antibacterial activity of the compound in question was determined using serial dilutions on solid media (MIC value determination) and using the spot-diffusion protocol. […] Standard bacterial strains used in the analysis:
(§7) A Petri dish was loaded with 0.25 ml of the sample in water and topped with MH II agar medium (Muller Hinton II) to 5 ml. The antibiotic concentration was 0.2 mg/ml medium. Additionally, a control without the antibiotic was made containing 5 ml of MH II. Using a densitometer, bacterial suspensions were made in NaCl solution containing 0.5 McF (10^8 CFU/ml), and subsequently dilutions thereof were made.
(§8) The following dilution series was made: • 10^4 CFU/ml NaCl for strains 6, 7, 8, 9 • 10^5 CFU/ml Nan for strains 1, 2, 3, 4, 5, 10, 11
(§9) After the medium set, 2 μl of bacterial suspension of each strain was inoculated onto the medium yielding 10^2 CFU/ml for strains 6, 7, 8, 9 and 10^3 CFU/ml for strains 1, 2, 3, 4, 5, 10, 11. Each suspension was loaded onto each plate. the incubation was performed for 16 hours at 35° C.

[12] = tested on: Stenotrophomonas maltophilia ATCC 13637; assay: MIC, serial dilutions on solid media; assay type: cell-based; settings: ATCC13637, MH II agar, 16 hours at 35° C., inhibitor fractions purified on ion-exchange column
Protocol: as §6, §7, §8, §9

[13] = tested on: Staphylococcus aureus ATCC 6538P; assay: MIC, serial dilutions on solid media; assay type: cell-based; settings: ATCC6538P, MH II agar, 16 hours at 35° C., inhibitor fractions purified on ion-exchange column
Protocol: as §6, §7, §8, §9

[14] = tested on: Staphylococcus aureus NCTC 4163; assay: MIC, serial dilutions on solid media; assay type: cell-based; settings: NCTC4163, MH II agar, 16 hours at 35° C., inhibitor fractions purified on ion-exchange column
Protocol: as §6, §7, §8, §9

[15] = tested on: Burkholderia cepacia ATCC 25416; assay: MIC, serial dilutions on solid media; assay type: cell-based; settings: ATCC25416, MH II agar, 16 hours at 35° C., inhibitor fractions purified on ion-exchange column
Protocol: as §6, §7, §8, §9

[16] = tested on: Bordetella bronchiseptica ATCC 4617; assay: MIC, serial dilutions on solid media; assay type: cell-based; settings: ATCC4617, MH II agar, 16 hours at 35° C., inhibitor fractions purified on ion-exchange column
Protocol: as §6, §7, §8, §9

[17] = tested on: Klebsiella pneumoniae ATCC 13883; assay: MIC, serial dilutions on solid media; assay type: cell-based; settings: ATCC13883, MH II agar, 16 hours at 35° C., inhibitor fractions purified on ion-exchange column
Protocol: as §6, §7, §8, §9

[18] = tested on: Acinetobacter baumanii ATCC 19606; assay: MIC, serial dilutions on solid media; assay type: cell-based; settings: Acinetobacter baumannii, ATCC19606, MH II agar, 16 hours at 35° C., inhibitor fractions purified on ion-exchange column
Protocol: as §6, §7, §8, §9

[19] = tested on: Enterococcus faecalis ATCC 29219; assay: MIC, serial dilutions on solid media; assay type: cell-based; settings: ATCC29219, MH II agar, 16 hours at 35° C., inhibitor fractions purified on ion-exchange column
Protocol: as §6, §7, §8, §9

[20] = tested on: Escherichia coli NCTC 8196; assay: MIC, serial dilutions on solid media; assay type: cell-based; settings: NCTC8196, MH II agar, 16 hours at 35° C., inhibitor fractions purified on ion-exchange column
Protocol: as §6, §7, §8, §9

[21] = tested on: Proteus vulgaris NCTC 4635; assay: MIC, serial dilutions on solid media; assay type: cell-based; settings: NCTC4635, MH II agar, 16 hours at 35° C., inhibitor fractions purified on ion-exchange column
Protocol: as §6, §7, §8, §9

[22] = biological target: T2, DD-peptidase R39; assay: Life of the inhibitor-enzyme complex, R39; assay type: biochemical, Actinomadura sp. R39
Protocol: as §4, §5

O=C1C=C2CC(C(=O)O)NC=C2C=C1O (stereo not drawn) [inhibitor, 7-hydroxy-6-oxo-2,3,4,6-tetrahydroisochinolin-3-carboxylic acid]
solubility in PBS pH 7.2-8.0 ([1]; PBS pH 7.2-8.0): soluble | solubility in an aqueous environment with low levels of K+, Na+ ([1]; aqueous, low levels of K+, Na+): soluble | solubility in ethyl acetate, methylene chloride, chloroform, amyl acetate, acetonitrile ([1]; ethyl acetate, methylene chloride, chloroform, amyl acetate, acetonitrile): not soluble | solubility in methanol, DMSO ([1]; methanol, DMSO): dissolves | stability in methanol, DMSO ([1]; methanol, DMSO): degrades | IC50 [2]: 0.000675 M | zone of inhibition at 400 µg/disc ([3]; after 15 h): 16 mm | zone of inhibition at 400 µg/disc ([3]; after 18 h): 15 mm | zone of inhibition at 400 µg/disc ([4]; after 15 h): 19 mm | zone of inhibition at 400 µg/disc ([4]; after 18 h): 19 mm | zone of inhibition at 400 µg/disc ([5]; after 15 h): 20 mm | zone of inhibition at 400 µg/disc ([5]; after 18 h): 19 mm | inhibition of class A β-lactamase [6]: did not inhibit | stability of DD-peptidase inhibitory activity in the presence of class A β-lactamase ([7]; 24 h incubation in β-lactamase at room temperature): completely stable | stability in a β-lactamase environment ([7]; initial incubation with β-lactamase, then DD-peptidase 64-575 II inhibition): stable in a β-lactamase environment | life of the inhibitor-DD-peptidase R 61 complex [8]: about 33 hours | antifungal activity against Candida albicans ATCC 10231 [9]: does not exhibit antifungal activity | IC50 [10]: 0.00045 M | MIC [11]: > 200 µg/mL | MIC [12]: 200 µg/mL (≈ 965 µM) | MIC [13]: > 200 µg/mL | MIC [14]: > 200 µg/mL | MIC [15]: > 200 µg/mL | MIC [16]: 200 µg/mL (≈ 965 µM) | MIC [17]: > 200 µg/mL | MIC [18]: > 200 µg/mL | MIC [19]: > 200 µg/mL | MIC [20]: > 200 µg/mL | MIC [21]: 200 µg/mL (≈ 965 µM) | life of the inhibitor-DD-peptidase R 39 complex [22]: 3.5 h

— patent publication US8344146B2, “Inhibitor of DD-peptidase and its use as antibiotic or anticancer drug” (Narodowy Instytut Zdrowia Publicznego-Panstwowy Zaklad …, priority 2007, dated 2013)
